Converted amounts (≈) assume the structure as drawn.
Columns and labels:
[1] = Solubility of the compound in FaSSIF at pH 6.5 incubated for 16 hrs by HPLC gradient analysis; format: physicochemical; conditions: for solubility: simulated gi fluid, pH 6.5, 16 h; for solubility at 16 h: FaSSIF, pH 6.5
[2] = Distribution coefficient, logD of the compound by chromatography; format: physicochemical; conditions: octanol/water
[3] = Solubility of the compound by CLND assay; format: physicochemical
[4] = Kinetic solubility of compound […] using the charged aerosol detector (CAD) analysis; format: physicochemical; conditions: read-out: Kinetic_solubility
[5] = Permeability of compound by AMP assay; format: ADME; conditions: not told; read-out: permeability
[6] = Blood clearance in male Wistar Han rat at 1 mg/kg, iv and 3 mg/kg, po measured up to 7 hrs by LC-MS/MS analysis; format: ADME, organism-based
[7] = Intrinsic clearance in human hepatocytes measured per gram of tissue incubated for 120 mins by LC-MS/MS method; format: ADME, cell-based, Hepatocyte; conditions: 2 h
[8] = Solubility of the compound in FaSSIF at pH 6.5 using crystalline form of sample incubated for 16 hrs by HPLC gradient analysis; format: physicochemical
[9] = Intrinsic clearance in dog hepatocytes measured per gram of tissue by LC-MS/MS method; format: ADME, cell-based, Canis lupus familiaris, Hepatocyte
[10] = Blood clearance in Beagle dog at 0.5 mg/kg, iv and 1 mg/kg, po measured up to 7 hrs by LC-MS/MS analysis; format: ADME, organism-based, Canis lupus familiaris
[11] = Half life in male Wistar Han rat at 1 mg/kg, iv and 3 mg/kg, po measured up to 7 hrs by LC-MS/MS analysis; format: ADME, organism-based; conditions: in vivo
[12] = Half life in Beagle dog at 0.5 mg/kg, iv and 1 mg/kg, po measured up to 7 hrs by LC-MS/MS analysis; format: ADME, organism-based, Canis lupus familiaris; conditions: in vivo
[13] = Oral bioavailability in Beagle dog at 1 mg/kg measured up to 7 hrs by LC-MS/MS analysis; format: ADME, organism-based, Canis lupus familiaris; conditions: in vivo
[14] = Volume of distribution at steady state in male Wistar Han rat at 1 mg/kg, iv and 3 mg/kg, po measured up to 7 hrs by LC-MS/MS analysis; format: ADME, organism-based; conditions: in vivo, read-out: Vdss
[15] = Intrinsic clearance in Wistar han rat hepatocytes measured per gram of tissue incubated for 60 mins by LC-MS/MS method; format: ADME, cell-based, Hepatocyte; conditions: 1 h
[16] = Volume of distribution at steady state in Beagle dog at 0.5 mg/kg, iv and 1 mg/kg, po measured up to 7 hrs by LC-MS/MS analysis; format: ADME, organism-based, Canis lupus familiaris; conditions: in vivo, read-out: Vdss
[17] = Oral bioavailability in male Wistar Han rat at 3 mg/kg measured up to 7 hrs by LC-MS/MS analysis; format: ADME, organism-based; conditions: in vivo

| Structure (SMILES) | chromatographic logD [2] | solubility kinetic [3] [mg/mL] | solubility kinetic [4] [mg/mL] | Papp [5] [nm/s] | solubility at 16 h [1] [mg/mL] | also measured |
| --- | --- | --- | --- | --- | --- | --- |
| CNC(=O)c1cc(C(=O)NC2CC2)c([C@H](C)c2ccccc2)o1 | 3.6 |  | ≥ 0.112 | > 4 |  |  |
| CCCNC(=O)c1cc(C(=O)NC)nn1[C@@H](C)c1ccccc1 | 4.4 | ≥ 0.132 |  | 560 |  |  |
| CNC(=O)c1cc(C(=O)N[C@H]2CC[C@H](O)CC2)c([C@@H](C)c2cccc(F)c2)o1 | 4.1 |  | ≥ 0.063 | 73 |  |  |
| CNC(=O)c1cc(C(=O)N[C@H]2[C@@H]3C[C@@H](OC)C[C@@H]32)n([C@@H](C)c2ccccc2)n1 | 2.7 | ≥ 0.15 |  | 440 |  | solubility thermodynamic at 16 h [8]: > 1 mg/mL |
| CNC(=O)c1cc(C(=O)N[C@H]2CC[C@H](O)CC2)c([C@@H](C)c2ccc(C)cc2)o1 | 3.4 |  | ≥ 0.245 | 108 | > 1 |  |
| CNC(=O)c1cc(C(=O)NCCO)c([C@@H](C)c2ccccc2)o1 | 2.3 | ≥ 0.132 |  | 33 |  | solubility thermodynamic at 16 h [8]: 0.925 mg/mL (≈ 2920 µM) |
| CNC(=O)c1cc(C(=O)NC(C)CO)c([C@@H](C)c2ccccc2)o1 (stereo partly drawn) | 2.7 | ≥ 0.121 |  | 57 |  |  |
| CNC(=O)c1cc(C(=O)N[C@H]2CC[C@H](OC)CC2)c([C@@H](C)c2ccccc2)o1 | 4.1 | ≥ 0.192 |  | 303 |  | solubility thermodynamic at 16 h [8]: 0.141 mg/mL (≈ 367 µM) |
| CNC(=O)c1cc(C(=O)N[C@H]2[C@@H]3C[C@@H](O)C[C@@H]32)n([C@@H](C)c2ccccc2)n1 | 3.2 | ≥ 0.291 |  | 61 |  | solubility thermodynamic at 16 h [8]: 0.101 mg/mL (≈ 274 µM) |
| CC[C@@H](c1ccccc1)n1nc(C(=O)NC)cc1C(=O)N[C@H]1[C@@H]2C[C@@H](O)C[C@@H]21 | 3.3 |  |  | 120 | 0.056 (≈ 146 µM) |  |
| CNC(=O)c1cc(C(=O)N[C@H]2CC[C@H](O)CC2)c([C@@H](C)c2ccc(Cl)cc2)o1 | 3.5 |  | ≥ 0.118 | 150 |  |  |
| CCNC(=O)c1cc(C(=O)NC)oc1[C@@H](C)c1ccccc1 | 3.5 | ≥ 0.148 |  | 420 |  | solubility thermodynamic at 16 h [8]: 0.432 mg/mL (≈ 1440 µM) |
| CCNC(=O)c1cc(C(=O)NC)nn1[C@@H](C)c1ccccc1 | 3.7 | ≥ 0.137 |  | 435 |  |  |
| CCC(=O)c1c[nH]c(C(=O)NC)c1 | 3.1 |  | 0.087 (≈ 483 µM) | 200 | 0.013 (≈ 72.1 µM) |  |
| CCNC(=O)c1cc2c(-c3cc(C(C)(C)O)ccc3Oc3c(C)cc(F)cc3C)cn(C)c(=O)c2[nH]1 [ABBV-744] | 5.1 |  | 0.026 (≈ 52.9 µM) | 413 |  | CLint [7]: 5.1 mL/min/g |
| CNC(=O)c1cc(C(=O)N[C@H]2[C@@H]3C[C@@H](O)C[C@@H]32)c([C@@H](C)c2ccccc2)o1 | 2.8 | ≥ 0.172 |  | 45 |  | clearance [6]: 2.46 L/h/kg; CLint [7]: < 0.45 mL/min/g; solubility thermodynamic at 16 h [8]: 0.736 mg/mL (≈ 2000 µM); CLint [9]: < 0.65 mL/min/g; clearance [10]: 0.3 L/h/kg; half-life [11]: 1.2 h; half-life [12]: 2.5 h; bioavailability [13]: 58%; Vd [14]: 2.3 L/kg; CLint [15]: < 0.8 mL/min/g; Vd [16]: 1.1 L/kg; bioavailability [17]: 67% |
| CNC(=O)c1cc(C(=O)NC)n([C@@H](C)c2ccccc2)n1 | 3 | ≥ 0.088 |  | 280 |  |  |
| CNC(=O)c1cc(C(=O)NC2CC2)cn([C@H](C)c2ccccc2)c1=O | 3.5 |  |  |  |  |  |
| CNC(=O)c1cc(C(=O)NC(C)CO)n([C@@H](C)c2ccccc2)n1 (stereo partly drawn) | 2.8 | ≥ 0.132 |  | 120 |  |  |
| CNC(=O)c1cc(C(=O)NC2CC2)cn([C@@H](C)c2ccccc2)c1=O | 3.3 |  |  |  | 0.699 (≈ 2060 µM) |  |
| CNC(=O)c1cc(C(=O)N[C@H]2CC[C@H](O)CC2)c([C@@H](C)c2cccc(Cl)c2)o1 | 3.5 |  | ≥ 0.179 | 150 | 0.408 (≈ 1010 µM) | clearance [6]: 3.3 L/h/kg; CLint [7]: < 0.45 mL/min/g; CLint [9]: 0.71 mL/min/g; clearance [10]: 0.216 L/h/kg; half-life [11]: 0.9 h; half-life [12]: 3.1 h; bioavailability [13]: 62%; Vd [14]: 2.7 L/kg; CLint [15]: 1.5 mL/min/g; Vd [16]: 0.9 L/kg; bioavailability [17]: 37% |
| CCCNC(=O)c1cc(C(=O)NC)oc1[C@@H](C)c1ccccc1 | 4.2 | ≥ 0.127 |  | 480 |  |  |
| CNC(=O)c1cc(C(=O)N[C@H]2CC[C@H](O)CC2)c([C@@H](C)c2cccc(OC)c2)o1 | 2.9 |  | ≥ 0.113 | 44 | 0.868 (≈ 2170 µM) |  |
| CC[C@@H](c1ccccc1)n1nc(C(=O)NC)cc1C(=O)N[C@H]1[C@@H]2C[C@H](O)C[C@@H]21 | 3.6 |  |  | 230 |  |  |
| CNC(=O)c1cc(C(=O)NC2CC2)n(Cc2ccccc2)n1 | 3.1 |  | ≥ 0.155 | > 80 | 0.285 (≈ 955 µM) |  |
| CNC(=O)c1cc(C(=O)NCCO)n([C@@H](C)c2ccccc2)n1 | 2.4 | ≥ 0.139 |  | 59 |  |  |
| CNC(=O)c1cc(C(=O)NC2CC2)c([C@@H](C)c2ccccc2)o1 | 3.6 | ≥ 0.145 | ≥ 0.145 | 500 |  | solubility [1]: 0.423 mg/mL (≈ 1350 µM) |
| CNC(=O)c1cc(C(=O)N[C@H]2CC[C@H](O)CC2)c([C@@H](C)c2ccccc2Cl)o1 | 3.1 |  | ≥ 0.242 | 78 | > 1 |  |

The next lines start with results.

| chromatographic logD [2] | solubility kinetic [3] [mg/mL] | solubility kinetic [4] [mg/mL] | Papp [5] [nm/s] | solubility at 16 h [1] [mg/mL] | Structure (SMILES) | also measured |
| --- | --- | --- | --- | --- | --- | --- |
| 3.6 | ≥ 0.165 | ≥ 0.165 | > 400 |  | CNC(=O)c1cc(C(=O)NC2CC2)n([C@@H](C)c2ccccc2)n1 | solubility [1]: 0.939 mg/mL (≈ 3010 µM) |
| 4.2 | ≥ 0.161 |  | 360 |  | CNC(=O)c1cc(C(=O)N[C@H]2CC[C@H](OC)CC2)n([C@@H](C)c2ccccc2)n1 | clearance [6]: 1.92 L/h/kg; CLint [7]: < 0.45 mL/min/g; solubility thermodynamic at 16 h [8]: 0.355 mg/mL (≈ 923 µM); CLint [9]: < 0.65 mL/min/g; clearance [10]: 0.36 L/h/kg; half-life [11]: 1 h; half-life [12]: 4.1 h; bioavailability [13]: 95%; Vd [14]: 2.4 L/kg; CLint [15]: 1.7 mL/min/g; Vd [16]: 2.1 L/kg; bioavailability [17]: 80% |
| 2.7 |  | ≥ 0.164 | 39 | > 1 | CNC(=O)c1cc(C(=O)N[C@H]2CC[C@H](OC)CC2)n([C@@H](CO)c2ccccc2)n1 |  |
| 3.6 | 0.031 (≈ 87 µM) |  | 270 |  | CNC(=O)c1cc(C(=O)NC2CCOCC2)n([C@@H](C)c2ccccc2)n1 |  |
| 3.7 |  | ≥ 0.168 | 333 | 0.327 (≈ 812 µM) | CNC(=O)c1cc(C(=O)N[C@H]2[C@@H]3C[C@H](O)C[C@@H]32)n([C@@H](C)c2cccc(Cl)c2)n1 | CLint [7]: 10.8 mL/min/g; CLint [9]: 8.3 mL/min/g; CLint [15]: 17.3 mL/min/g |
| 4.1 |  | 0.007 (≈ 16 µM) | 280 |  | CNC(=O)c1cc(C(=O)N[C@H]2CC[C@H](O)CC2)n([C@@H](C)c2cccc(C(F)(F)F)c2)n1 |  |
| 3.7 |  | ≥ 0.132 | 180 | 0.102 (≈ 252 µM) | CNC(=O)c1cc(C(=O)N[C@H]2CC[C@H](O)CC2)n([C@@H](C)c2ccc(Cl)cc2)n1 |  |
|  |  | 0.138 (≈ 359 µM) | 70 | > 1 | CC[C@@H](c1ccccc1)n1nc(C(=O)NC)cc1C(=O)N[C@H]1CC[C@H](O)CC1 |  |
| 3.9 |  | ≥ 0.182 | 100 |  | CNC(=O)c1cc(C(=O)N[C@H]2CC[C@H](O)CC2)n([C@@H](C)c2ccccc2Cl)n1 |  |
| 3.3 |  | ≥ 0.172 | 85 | > 1 | CNC(=O)c1cc(C(=O)N[C@H]2CC[C@H](O)CC2)c([C@@H](C)c2cccc(C)c2)o1 |  |
| 3.7 |  | ≥ 0.143 | 235 | 0.196 (≈ 484 µM) | CNC(=O)c1cc(C(=O)N[C@H]2CC[C@H](O)CC2)n([C@@H](C)c2cccc(Cl)c2)n1 |  |
| 3.9 |  | ≥ 0.175 | 270 |  | CNC(=O)c1cc(C(=O)N[C@H]2CC[C@H](O)CC2)n([C@@H](C)c2ccc(C(F)(F)F)cc2)n1 |  |
| 3.4 |  | ≥ 0.18 | 110 |  | CNC(=O)c1cc(C(=O)N[C@H]2CC[C@H](O)CC2)n([C@@H](C)c2cccc(C)c2)n1 |  |
